Laboratory results: patent publication US12648925B2, “Composition for preventing or treating cancer, containing manassantin A and immune checkpoint inhibitor or epithelial growth factor receptor inhibitor” (KYUNGPOOK NATIONAL UNIVERSITY INDUSTRY-ACADEMIC COOPERATION …, priority 2019, dated 2026)

Test system: Lewis lung carcinoma (LLC)
Assay: Hypoxic state (hypoxyprobe-1/PIMO) and CD31 microvessel density by immunohistochemistry in LLC allograft tumor
Type: in vivo, C57BL/6J mouse
Conditions: 2 mg/kg intraperitoneal on day 2, 4, 6, 8, 10; tumor extracted day 17; vs PBS control; FIG. 1
Protocol: As a control, the same amount of phosphate buffered saline (PBS) was injected. In addition, to measure a hypoxic state inside the tumor on day 17, 60 mg/kg of hypoxyprobe-1™ (pimonidazole hydrochloride; PIMO, HPI) was administered by intraperitoneal injection, and after 90 minutes, the mouse was sacrificed to extract the tumor. In addition, immunohistochemistry (HC) analyses were performed using the obtained tumor tissue. More particularly, the obtained tumor was fixed with 3.7% paraformaldehyde (PFA) and then dehydrated by treatment with a 10 to 40% sucrose solution step by step. In addition, after increasing the osmotic permeability of cells by treatment with 0.3% Triton X-100 and blocking with 5% bovine serum albumin (BSA), a rat anti-CD31 (BD Biosciences) or Alexa Fluor 647-conjugated anti-HIF-1 alpha antibody (Abcam) was treated and reacted at 4° C. for 16 hours. The mouse treated with the HIF-1 alpha antibody was a mouse which was not treated with hypoxyprobe-1™. […] In addition, finally, a cell nucleus was stained with DAPI (Sigma-Aldrich) and observed using a confocal microscope, followed by quantifying a fluorescent value using ImageJ. […]

Question: `COc1ccc([C@@H](O)[C@@H](C)Oc2ccc([C@H]3O[C@H](c4ccc(O[C@H](C)[C@H](O)c5ccc(OC)c(OC)c5)c(OC)c4)[C@H](C)[C@H]3C)cc2OC)cc1OC` [manassantin A] was tested. Which “hypoxic state inside the tumor” value did it give?
Answer: The value was “significantly reduced”.

Question: And the “microvessel density (MVD) of CD31-positive vascular endothelial cells” value?
Answer: Its value is “significantly reduced”.
